Experimental findings from ChEMBL document CHEMBL3112546, “Synthetic α-(aminomethyl)-γ-butyrolactones and their anti-pancreatic cancer activities” (2013) are described below.

Experiment [1] in a line: Antiproliferative activity against human PANC1 cells assessed as cell growth at 10 uM after 72 hrs by CellTitre assay relative to control. The note with it: PANC-1, 72 h, read-out: Activity. The class given is functional.
Experiment [2] can be described thus: Antiproliferative activity against human BxPC3 cells assessed as cell growth at 10 uM after 72 hrs by CellTitre assay relative to control. The class given is functional. The note with it: BXPC-3, 72 h, read-out: Activity.
Experiment [3] can be described thus: Antiproliferative activity against human MIAPaCa2 cells assessed as cell growth at 10 uM after 72 hrs by CellTitre assay relative to control. The class given is functional. The note with it: MIA PaCa-2, 72 h, read-out: Activity.
For experiment [4], the system named is PANC-1. The experiment is described as follows: Antiproliferative activity against human PANC1 cells assessed as cell growth at >100 uM after 72 hrs by CellTitre assay relative to control. The class given is functional, cell-based.

Structures are written as SMILES. Where a name gives a salt, the structure may show the parent alone. Active and inactive are the calls of the source. No cut-off for these calls is given here.

Turning to `C=C1C(=O)O[C@@H]2[C@H]3O[C@]3(C)CC/C=C(\C)CC[C@@H]12`, the figures for the growth at 10 µM in experiment [1], in experiment [2] and in experiment [3] were 12%, 6% and 3%, respectively.
For `C=C1C(=O)O[C@@H](c2ccccc2)[C@@H]1c1ccccc1` (racemic) the same measures were 1%, 1% and 1%.
In the case of `C=C1C(=O)O[C@H](c2ccccc2)[C@@H]1c1ccccc1` (racemic), the growth at 10 µM in experiment [1] was determined as 38%; in experiment [2] it was 8%; in experiment [3], 3%.
For `CN(C)C[C@H]1C(=O)O[C@@H](c2ccccc2)[C@@H]1c1ccccc1` (racemic), in that order: 0%, 0% and 1%.
For the compound `CN(C)C[C@@H]1C(=O)O[C@H](c2ccccc2)[C@@H]1c1ccccc1` (racemic), the growth at 10 µM in experiment [1] was found to be 30%; in experiment [2], 1%; in experiment [3], 9%.
For `CCN(CC)C[C@H]1C(=O)O[C@@H](c2ccccc2)[C@@H]1c1ccccc1` (racemic), in that order: 1%, 0% and 1%.
On to `CCN(CC)C[C@@H]1C(=O)O[C@H](c2ccccc2)[C@@H]1c1ccccc1` (racemic), for which the growth at 10 µM in experiment [1] amounted to 42%; in experiment [2] it was 1%; in experiment [3], 17%.
In the case of `O=C1O[C@@H](c2ccccc2)[C@H](c2ccccc2)[C@H]1CN1CCCC1` (racemic), the growth at 10 µM in experiment [1] was determined as 3%; in experiment [2], 0%; in experiment [3] it was 1%.
For `O=C1O[C@H](c2ccccc2)[C@H](c2ccccc2)[C@@H]1CN1CCCC1` (racemic), in that order: 11%, 0% and 17%.
For `O=C1O[C@@H](c2ccccc2)[C@H](c2ccccc2)[C@H]1CN1CCCCC1` (racemic) the same measures were 1%, 1% and 1%.
For `O=C1O[C@H](c2ccccc2)[C@H](c2ccccc2)[C@@H]1CN1CCCCC1` (racemic), in that order: 8%, 3% and 11%.
In the case of `O=C1O[C@@H](c2ccccc2)[C@H](c2ccccc2)[C@H]1CN1CCOCC1` (racemic), the growth at 10 µM in experiment [1] worked out at 16%; in experiment [2], 9%; in experiment [3], 10%.
On to `O=C1O[C@H](c2ccccc2)[C@H](c2ccccc2)[C@@H]1CN1CCOCC1` (racemic), for which the growth at 10 µM came out at 19% in experiment [1], 6% in experiment [2] and 13% in experiment [3].
Take `O=C1O[C@@H](c2ccccc2)[C@H](c2ccccc2)[C@H]1CN(Cc1ccccc1)Cc1ccccc1` (racemic): in experiment [4], the outcome was inactive. Besides, the results for the growth at 10 µM in experiment [2] and in experiment [3] were 50% and 35%, respectively.
With `O=C1O[C@H](c2ccccc2)[C@H](c2ccccc2)[C@@H]1CN(Cc1ccccc1)Cc1ccccc1` (racemic), the growth at 10 µM in experiment [1] was found to be 75%; in experiment [2] it was 34%; in experiment [3], 33%.
With `O=C1O[C@@H](c2ccccc2)[C@H](c2ccccc2)[C@H]1CN(Cc1ccccc1)C(=O)c1ccccc1` (racemic), the result in experiment [4] was inactive. The growth at 10 µM in experiment [2] stood at 81%; in experiment [3], 92%.
Turning to `C/C1=C\CC[C@@]2(C)O[C@@H]2[C@H]2OC(=O)[C@@H](CN(C)C)[C@@H]2CC1` [(DIMETHYLAMINO)PARTHENOLIDE FUMARIC ACID SALT], the growth at 10 µM was found to be 17% in experiment [1], 7% in experiment [2] and 2% in experiment [3].
